Values of other authors, collected in US8449914B2, “Controlled release carvedilol compositions” (Egalet Ltd., priority 2002, dated 2013).
Like-named read-outs stand apart in the source and are kept apart here.

Key:
[1] = system: alpha1-adrenoreceptor; settings: IR formulation
[2] = system: beta-adrenoreceptor; settings: humans
[3] = not given; remark: listed apart in the source
[4] = system: beta-adrenoreceptor; settings: preclinical studies

For COc1ccccc1OCCNCC(O)COc1cccc2[nH]c3ccccc3c12 (racemic) [Carvedilol], the “steady-state volume of distribution” value (in vivo) is given as “approximately 115 L”, the “absorption in the large intestine, share of the total absorption” value (timed-release capsules, study by Nolte et al) is given as “approximately 10%” and the “time after administration at which alpha-mediated vasodilatory effects are evident” value [1] is given as at most 30 min. For the same compound, the “time after administration at which beta-blocking actions are evident” value [2] was “one”, the solubility ([3]; 95% ethanol) was “sparingly soluble” and the solubility ([3]; dimethylsulfoxide) was “freely soluble”. The solubility ([3]; ethyl ether) was “slightly soluble”, the solubility ([3]; gastric fluid (simulated, TS, pH1.1)) was “practically insoluble” and the solubility ([3]; intestinal fluid (simulated, TS without pancreatin, pH 7.5)) was “practically insoluble”. The solubility ([3]; isopropanol) was “sparingly soluble”, the solubility ([3]; methanol) was “soluble” and the solubility ([3]; methylene chloride) was “soluble”. For the same compound, the solubility ([3]; water) was “practically insoluble”.

For COc1cc(O)ccc1OCCNCC(O)COc1cccc2[nH]c3ccccc3c12 (centres unmarked) [4′-hydroxyphenyl metabolite, 4′-hydroxy carvedilol], the “potency for beta-blockade relative to carvedilol” value [4] is listed as “approximately 13 times”.

For COc1ccccc1OCCNC[C@@H](O)COc1cccc2[nH]c3ccccc3c12 [R(+)-carvedilol], the “mean apparent terminal elimination half-lives” value (in vivo) is listed as 5 to 9 h and the “plasma concentrations in poor metabolizers of debrisoquin compared to extensive metabolizers” value (in vivo) is listed as 2-3 fold.

In the case of COc1ccccc1OCCNC[C@H](O)COc1cccc2[nH]c3ccccc3c12 [S(−)-carvedilol], the “mean apparent terminal elimination half-lives” value (in vivo) is given as 7 to 11 h.
